Reference: the supplement of paper PMC10307832

Tests used:
Assay in all cases: relative viability (nuclei count vs DMSO), 5 days (fraction); higher = more cells survive
[1] = compound: C[C@@H](N)c1ccc(C(=O)Nc2ccnc3[nH]ccc23)cc1 + C[C@@H](Oc1cc(-c2cnn(C3CCNCC3)c2)cnc1N)c1c(Cl)ccc(F)c1Cl [Crizotinib] (partner 1 µM)
In short: (§1)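 Lung cancer cell lines, seeded in 1536-well plates, were treated the following day by pin tool with a single drug or with five library-drug doses (not always all listed) in √10 steps on top of a fixed anchor-drug dose. Cells were fixed and nuclei stained in one step after 5 days, and nuclei were counted. Relative viability is the nuclei count for treated wells divided by that for vehicle wells, reported as medians of duplicate plates.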

[2] = compound: O[C@H]1CC[C@H](Nc2ncc3nc(Nc4c(F)cc(F)cc4F)n([C@H]4CCOC4)c3n2)CC1 [Tanzisertib] + CCNC(=O)c1noc(-c2cc(C(C)C)c(O)cc2O)c1-c1ccc(CN2CCOCC2)cc1 [Luminespib] (partner 0.01 µM)
In short: as §1

[3] = compound: O[C@H]1CC[C@H](Nc2ncc3nc(Nc4c(F)cc(F)cc4F)n([C@H]4CCOC4)c3n2)CC1 [Tanzisertib] + C[C@@H](Oc1cc(-c2cnn(C3CCNCC3)c2)cnc1N)c1c(Cl)ccc(F)c1Cl [Crizotinib] (partner 1 µM)
In short: as §1

[4] = compound: O[C@H]1CC[C@H](Nc2ncc3nc(Nc4c(F)cc(F)cc4F)n([C@H]4CCOC4)c3n2)CC1 [Tanzisertib] + Nc1nc2[nH]cc(CCc3ccc(C(=O)N[C@@H](CCC(=O)O)C(=O)O)cc3)c2c(=O)[nH]1 [Pemetrexed] (partner 0.2 µM)
In short: as §1

Cell Line	relative viability ([1]; first compound 0.04 µM)	relative viability ([1]; first compound 0.1265 µM)	relative viability ([1]; first compound 0.4 µM)	relative viability ([1]; first compound 4 µM)	relative viability ([2]; first compound 0.08 µM)	relative viability ([2]; first compound 0.253 µM)	relative viability ([2]; first compound 0.8 µM)	relative viability ([2]; first compound 2.53 µM)	relative viability ([2]; first compound 8 µM)	relative viability ([3]; first compound 0.08 µM)	relative viability ([3]; first compound 0.253 µM)	relative viability ([3]; first compound 0.8 µM)	relative viability ([3]; first compound 2.53 µM)	relative viability ([3]; first compound 8 µM)	relative viability ([4]; first compound 0.08 µM)	relative viability ([4]; first compound 0.253 µM)	relative viability ([4]; first compound 0.8 µM)	relative viability ([4]; first compound 2.53 µM)	relative viability ([4]; first compound 8 µM)	relative viability ([1]; first compound 1.265 µM)
NCI-H23	0.589	0.571	0.619	0.511	0.262	0.227	0.203	0.228	0.199	0.568	0.553	0.554	0.601	0.598	0.785	0.761	0.682	0.681	0.584	–
NCI-H322M	0.881	0.944	1.09	1.08	0.834	0.751	0.87	0.932	0.951	0.779	0.928	0.832	0.882	0.709	0.644	0.657	0.566	0.621	0.548	–
NCI-H358	0.744	0.543	0.676	0.633	0.302	0.282	0.5	0.29	0.318	0.748	0.716	0.511	0.506	0.485	0.165	0.176	0.171	0.163	0.179	0.513
NCI-H441	0.807	0.764	0.749	0.565	0.312	0.338	0.29	0.279	0.314	0.94	0.811	0.505	0.647	0.78	0.27	0.241	0.286	0.24	0.27	0.948
NCI-H460	1.1	0.943	0.966	0.603	0.0366	0.0372	0.0359	0.0394	0.0394	1.06	0.897	0.978	0.923	0.791	0.0668	0.0601	0.0628	0.0601	0.0429	0.516
NCI-H520	0.824	0.852	0.801	0.804	0.255	0.253	0.218	0.227	0.202	0.862	0.821	0.745	0.68	0.863	0.589	0.714	0.67	0.561	0.642	1.05
NCI-H596	1.04	0.899	0.934	0.93	1.1	1.16	1.22	0.96	0.892	0.979	1.05	0.955	0.988	0.902	0.506	0.538	0.515	0.516	0.467	0.809
NCI-H647	1.09	0.98	1.02	0.692	0.152	0.12	0.196	0.158	0.336	1.12	0.975	1.09	1.14	1.01	0.204	0.185	0.18	0.151	0.156	0.882
NCI-H650	0.66	0.639	0.745	0.587	0.725	0.915	0.884	0.936	0.855	0.725	0.686	0.712	0.881	0.636	0.885	1.03	0.969	1.09	0.576	–
NCI-H661	0.906	0.929	1.18	0.89	0.903	0.943	0.902	0.952	0.955	1.04	0.939	–	1.02	0.991	0.896	0.896	0.872	0.919	0.913	1.02
NCI-H838	0.835	0.778	0.638	0.316	0.293	0.34	0.277	0.248	0.209	0.892	0.849	0.875	0.88	0.885	0.234	0.255	0.254	0.233	0.25	0.431
NCI-H1355	1.04	1.09	1.19	0.941	0.77	0.697	0.805	0.725	0.628	1.12	1.11	1.06	1.08	1.06	1.07	1.06	1.05	1.07	1.03	–
NCI-H1437	0.915	0.851	0.943	0.792	1.18	1.14	1.04	1.27	1.21	1.07	0.89	0.94	1.01	0.919	0.321	0.327	0.322	0.315	0.263	1.01
NCI-H1563	0.981	0.794	0.753	0.934	0.485	0.498	0.524	0.484	0.446	0.85	0.937	0.869	0.966	0.79	0.829	0.935	0.761	0.711	0.619	0.883
NCI-H1650	1.04	1.12	1.04	0.763	0.233	0.215	0.206	0.2	0.196	1	1.06	1.07	0.914	0.803	0.349	0.351	0.511	0.33	0.329	0.911
NCI-H1651	0.921	0.822	0.916	0.837	0.989	0.802	0.746	0.921	0.729	0.851	0.817	0.882	0.833	0.921	0.586	0.625	0.436	0.6	0.513	0.898

Cell Line	relative viability ([1]; first compound 0.04 µM)	relative viability ([1]; first compound 0.1265 µM)	relative viability ([1]; first compound 0.4 µM)	relative viability ([1]; first compound 4 µM)	relative viability ([2]; first compound 0.08 µM)	relative viability ([2]; first compound 0.253 µM)	relative viability ([2]; first compound 0.8 µM)	relative viability ([2]; first compound 2.53 µM)	relative viability ([2]; first compound 8 µM)	relative viability ([3]; first compound 0.08 µM)	relative viability ([3]; first compound 0.253 µM)	relative viability ([3]; first compound 0.8 µM)	relative viability ([3]; first compound 2.53 µM)	relative viability ([3]; first compound 8 µM)	relative viability ([4]; first compound 0.08 µM)	relative viability ([4]; first compound 0.253 µM)	relative viability ([4]; first compound 0.8 µM)	relative viability ([4]; first compound 2.53 µM)	relative viability ([4]; first compound 8 µM)	relative viability ([1]; first compound 1.265 µM)
NCI-H1666	1.12	0.967	1.22	1.33	1.01	0.924	1.05	1.19	1.18	0.902	0.934	1.09	1.03	1.09	0.894	0.789	0.865	0.941	0.796	1.16
NCI-H1734	0.669	0.719	0.653	0.575	0.208	0.206	0.214	0.197	0.203	0.743	0.658	0.72	0.738	0.599	0.428	0.423	0.408	0.403	0.402	–
NCI-H1755	0.808	0.822	0.813	0.608	0.415	0.51	0.473	0.374	0.547	0.85	0.821	0.863	0.839	0.777	0.368	0.451	0.565	0.408	0.404	0.795
NCI-H1792	0.964	0.976	1.08	0.854	0.413	0.402	0.447	0.448	0.344	1.03	1.05	1.04	0.879	0.87	1.2	0.694	0.876	0.763	0.625	0.916
NCI-H1915	0.911	0.886	0.929	0.81	0.875	0.839	0.808	0.789	0.776	0.929	0.91	0.862	0.904	0.856	0.565	0.451	0.486	0.501	0.49	–
NCI-H1944	1.12	1.1	1.12	0.94	0.858	0.84	0.749	0.658	0.73	1.23	1.03	1.11	1.14	0.949	0.733	0.589	0.686	0.678	0.554	–
NCI-H1975	1.02	0.961	0.944	0.727	0.331	0.142	0.232	0.161	0.247	0.892	1	0.954	0.935	0.915	0.304	0.294	0.267	0.317	0.254	0.873
NCI-H1993	0.867	0.743	–	0.878	0.879	0.783	0.915	0.714	1	0.855	0.886	0.891	0.789	0.789	0.621	0.585	0.605	0.561	0.54	0.877
NCI-H2009	1.05	0.954	0.825	0.644	1.09	1.06	1.11	1.02	1.04	1.04	1.13	1.02	1.12	1.06	1.01	1.03	0.957	1.04	1.1	0.808
NCI-H2023	0.738	0.596	0.733	0.544	0.966	0.762	0.826	0.628	0.696	0.568	0.651	0.684	0.607	0.567	0.287	0.222	0.215	0.202	0.205	0.741
NCI-H2085	0.914	0.917	0.786	0.718	0.525	0.406	0.443	0.459	0.457	0.875	0.805	0.819	0.889	0.93	–	0.934	0.942	0.841	0.765	0.749
NCI-H2087	0.824	0.538	0.581	0.386	0.182	0.2	0.166	0.21	0.168	0.717	0.918	0.889	0.899	1.06	0.702	0.661	0.668	0.691	0.706	0.788
NCI-H2126	1.03	1.02	1.03	1.04	0.919	0.897	0.887	0.961	0.993	1.09	1.01	1.03	0.985	1.03	0.674	0.69	0.728	0.723	0.515	1.02
NCI-H2170	1.21	1.08	1.18	1.08	0.857	0.739	0.633	0.684	0.78	1.42	1.18	1.16	1.09	1.02	0.265	0.292	0.282	0.265	0.251	1.21
NCI-H2228	0.373	0.463	0.653	0.497	0.2	0.188	0.173	0.162	0.132	0.53	0.458	0.475	0.465	0.351	0.371	0.288	0.378	0.355	0.348	0.556
NCI-H2347	0.668	0.775	0.776	0.605	0.494	–	0.581	0.571	0.511	0.675	0.765	0.739	0.945	0.827	0.454	0.468	0.435	0.408	0.442	0.714
